In EP0007995A1, “Chemotherapeutic preparations and their manufacture” (F. HOFFMANN-LA ROCHE & CO. Aktiengesellschaft, priority 1978, dated 1980):

Experiments:
Salmonella typhimurium = experiment: In vivo activity in infected mouse; settings: Salmonella enterica, po; Maus, p.o., gegen Salmonella typhimurium; read-out: CD50 p.o.
menschlichen Lymphozyten = settings: human
[1] = system: Pseudomonas aeruginosa BA; experiment: In vivo activity in infected mouse; settings: po; Maus, p.o., gegen Pseudomonas aeruginosa BA; read-out: CD50 p.o.
[2] = J. Pharm. Pharmacol. 3 [1951], 143; cited from earlier work
[3] = system: Streptococcus pyogenes β15; experiment: In vivo activity in infected mouse; settings: po; Maus, p.o., gegen Streptococcus pyogenes β15; read-out: CD50 p.o.
in vivo = settings: mouse
Proteus mirabilis = experiment: In vivo activity in infected mouse; settings: po; Maus, p.o., gegen Proteus mirabilis; read-out: CD50 p.o.
[4] = in vivo
Water solubility = assay type: physicochemical
Description: Wie gefunden wurde, lassen sich mit Fluoramphenicol wässrige Lösungen in Konzentrationen bis zu 0,5 g/10 ml herstellen. Solche Lösungen stellen eine wertvolle parenterale Applikationsform, insbesondere für die intravenöse Injektion und -Infusion dar. Dank seiner guten Wasserlöslichkeit eignet sich Fluoramphenicol auch für die Herstellung von ophthalmologischen Präparaten mit besonders guter Verträglichkeit, insbesondere für die Herstellung von Augentropfen.

E. coli 1346 = experiment: In vivo activity in infected mouse; settings: Escherichia coli, po; Maus, p.o., gegen E. coli 1346; read-out: CD50 p.o.
Acute toxicity = settings: mouse, in vivo

**Q.** For O=C(N[C@H](CO)[C@H](O)c1ccc([N+](=O)[O-])cc1)C(F)F [Fluoramphenicol, D-threo-1-(p-Nitrophenyl)-2-difluor-acetamino-l,3-propandiol], which ED50 (Salmonella typhimurium) is on record?
**A.** Its ED50 is 19 mg/kg.

**Q.** And the “Cytotoxizität gegenüber menschlichen Lymphozyten, mal weniger toxisch als Chloramphenicol” value (menschlichen Lymphozyten)?
**A.** Its value is ~3 mal.

**Q.** And the ED50 [1]?
**A.** Its ED50 is 33 mg/kg.

**Q.** And the “Cytotoxizität gegenüber KB-Zellen, mal weniger toxisch als Chloramphenicol” value (KB-Zellen)?
**A.** The value was 3-5 mal.

**Q.** And the biological activity [2]?
**A.** Its biological activity is “biologisch unwirksam”.

**Q.** What about the ED50 [3] of the same compound?
**A.** The ED50 was 11 mg/kg.

**Q.** What about the LD50 (in vivo; ip) of the same compound?
**A.** Its LD50 is 2000 to 3000 mg/kg.

**Q.** What about the LD50 (in vivo; po) of the same compound?
**A.** Its LD50 is 3000 to 4000 mg/kg.

**Q.** And the ED50 (Proteus mirabilis)?
**A.** The ED50 was 5.2 mg/kg.

**Q.** What about the “metabolic stability (concluded from urine recovery)” value [4] of the same compound?
**A.** Its value is “metabolisch beständig”.

**Q.** And the Serumkonzentrationen ([4]; po)?
**A.** The Serumkonzentrationen was “höhere Serumkonzentrationen als Chloramphenicol”.

**Q.** And the “Urinkonzentrationen, mal höher als Chloramphenicol” value ([4]; po)?
**A.** Its value is “ca. lO”.

**Q.** And the “mal langsamer ausgeschieden als Chloramphenicol” value ([4]; po)?
**A.** The value was 2-3 mal.

**Q.** What about the “totale Urin-recovery an aktivem Fluoramphenicol, mal höher als an aktivem Chloramphenicol” value ([4]; po) of the same compound?
**A.** The value was “ca. lO”.

**Q.** And the “wässrige Lösungen in Konzentrationen” value (Water solubility; aqueous solution)?
**A.** Its value is ≤ 0,5 g/10 ml.

**Q.** What about the Wasserlöslichkeit (Water solubility; result in words) of the same compound?
**A.** Its Wasserlöslichkeit is “unerwartet hohe Wasserlöslichkeit”.

**Q.** What about the ED50 (E. coli 1346) of the same compound?
**A.** The ED50 was 6.6 mg/kg.

**Q.** For O=C(N[C@H](CO)[C@H](O)c1ccc([N+](=O)[O-])cc1)C(Cl)Cl [Chloramphenicol, reference compound], which ED50 (Salmonella typhimurium) is on record?
**A.** The ED50 was 18 mg/kg.

**Q.** And the ED50 [1]?
**A.** The ED50 was 93 mg/kg.

**Q.** And the LD50 (Acute toxicity; ip)?
**A.** Its LD50 is 1000 to 1500 mg/kg.

**Q.** And the LD50 (Acute toxicity; po)?
**A.** Its LD50 is 2000 to 3000 mg/kg.

**Q.** And the ED50 [3]?
**A.** Its ED50 is 22 mg/kg.

**Q.** And the ED50 (Proteus mirabilis)?
**A.** The ED50 was 5.8 mg/kg.

**Q.** And the ED50 (E. coli 1346)?
**A.** The ED50 was 6.6 mg/kg.
